Results on 36 molecules are retold here after patent US8362000B2, “Azetidinyl diamides as monoacylglycerol lipase inhibitors” (Janssen Pharmaceutica NV, priority 2009, dated 2013).

The structures appear in SMILES notation.

The first assay addresses T1, mutant MGL (Homo sapiens, UniProt Q99685, L169S/L176S).
T1 sequence (Q99685 1-303 L169S/L176S): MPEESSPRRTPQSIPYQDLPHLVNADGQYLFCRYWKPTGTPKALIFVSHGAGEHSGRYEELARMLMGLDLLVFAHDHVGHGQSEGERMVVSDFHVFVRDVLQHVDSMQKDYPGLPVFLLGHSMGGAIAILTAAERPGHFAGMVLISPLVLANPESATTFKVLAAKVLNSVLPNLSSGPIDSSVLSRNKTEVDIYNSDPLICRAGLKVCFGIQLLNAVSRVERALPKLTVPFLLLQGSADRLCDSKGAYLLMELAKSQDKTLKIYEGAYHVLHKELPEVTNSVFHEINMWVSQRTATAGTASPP
The experiment in a line: MGL ThermoFluor assay - mutant. Particulars: ThermoFluor concentration-response, read-out: MGL mutant ThermoFluor Kd. The assay is classed as binding. For orientation: In DSF a fluorescence change marks the thermal transition of the protein.
`O=C(c1cc(Br)cc(C(F)(F)F)c1)N1CC(N2CCN(C(=O)c3nccs3)CC2)C1` [Cpd 910]: the Kd came to 1.33 µM. Still for that read-out and setting: for `Cc1cc(Br)ccc1C(=O)N1CC(N2CCN(C(=O)c3ccccc3)CC2)C1` [Cpd 22, 1-{1-[(4-Bromo-2-methylphenyl)carbonyl]azetidin-3-yl}-4-(phenylcarbonyl)piperazine] the value was > 76.7 µM; for `O=C(c1ccccc1)N1CCN(C2CN(C(=O)c3ccc(Oc4ccccn4)cc3)C2)CC1` [Cpd 1484], 20 µM; for `O=C(c1ccc(SCc2ccc(Cl)cc2)cc1)N1CC(N2CCN(C(=O)c3nccs3)CC2)C1` [Cpd 415], 0.008 µM. The same measure, in the same setting: then `O=C(c1ccccc1)N1CCN(C2CN(C(=O)c3ccc(=O)n(Cc4ccccc4)c3)C2)CC1` [Cpd 565, 1-Benzyl-5-({3-[4-(phenylcarbonyl)piperazin-1-yl]azetidin-1-yl}carbonyl)pyridin-2(1H)-one], with > 31.2 µM; and `O=C(c1ccc(-c2ccccc2)cc1)N1CCN(C2CN(C(=O)c3ccc[nH]3)C2)CC1` [Cpd 1383, 1-(Biphenyl-4-ylcarbonyl)-4-[1-(1H-pyrrol-2-ylcarbonyl)azetidin-3-yl]piperazine], with 0.108 µM; and `O=C(c1ccc(SCc2cccc(Cl)c2)cc1)N1CC(N2CCN(C(=O)c3nccs3)CC2)C1` [Cpd 412, 1-[1-({4-[(3-Chlorobenzyl)sulfanyl]phenyl}carbonyl)azetidin-3-yl]-4-(1,3-thiazol-2-ylcarbonyl)piperazine], with 0.01 µM.

For the molecule `O=C(c1nccs1)N1CCN(C2CN(C(=O)c3cc(Br)ccc3F)C2)CC1` [Cpd 915], the Kd was 5 µM. The same measure, in the same setting: for `O=C(c1ccccc1)N1CCN(C2CN(C(=O)c3ccc(CNc4cccc(Cl)c4)cc3)C2)CC1` [Cpd 549] the value was 0.06 µM. The same measure, in the same setting: for `O=C(/C=C/c1ccc2ccccc2c1)N1CC(N2CCN(C(=O)c3ccccc3)CC2)C1` [Cpd 105, 1-{1-[(2E)-3-Naphthalen-2-ylprop-2-enoyl]azetidin-3-yl}-4-(phenylcarbonyl)piperazine] the value was 5 µM.

Take `CSc1ccc(C(=O)N2CC(N3CCN(C(=O)c4ccccc4)CC3)C2)cc1` [Cpd 470, 1-(1-{[4-(Methylsulfanyl)phenyl]carbonyl}azetidin-3-yl)-4-(phenylcarbonyl)piperazine]: the Kd worked out at 2.94 µM. The same measure, in the same setting: for `O=C(c1ccc(OCc2cccc(Cl)c2)cc1)N1CC(N2CCN(C(=O)C(F)(F)F)CC2)C1` [Cpd 958] the value was 0.216 µM; for `O=C(c1ccccc1)N1CCN(C2CN(C(=O)c3ccc(-c4ccc(F)cc4)cc3)C2)CC1` [Cpd 33, 1-{1-[(4′-Fluorobiphenyl-4-yl)carbonyl]azetidin-3-yl}-4-(phenylcarbonyl)piperazine], 0.0091 µM. The same measure, in the same setting: for `O=C(C#Cc1ccccc1)N1CC(N2CCN(C(=O)c3nccs3)CC2)C1` [Cpd 477] the value was 2 µM; for `O=C(c1cscn1)N1CCN(C2CN(C(=O)C3CCC(C(F)(F)F)CC3)C2)CC1` (stereo not drawn) [Cpd 644], > 76.7 µM; for `N#Cc1cccc(-c2ccc(C(=O)N3CC(N4CCN(C(=O)c5ccccc5)CC4)C3)cc2)c1` [Cpd 76, 4′-({3-[4-(Phenylcarbonyl)piperazin-1-yl]azetidin-1-yl}carbonyl)biphenyl-3-carbonitrile], 0.333 µM. Regarding `O=C(c1ccccc1)N1CCN(C2CN(C(=O)c3ccc(Oc4ccc(Br)cn4)cc3)C2)CC1` [Cpd 532], the Kd turned out to be 2.33 µM.

Regarding `O=C(c1ccccc1)N1CCN(C2CN(C(=O)c3cccc(NCc4ccccc4)c3)C2)CC1` [Cpd 531, N-Benzyl-3-({3-[4-(phenylcarbonyl)piperazin-1-yl]azetidin-1-yl}carbonyl)aniline], the Kd was determined as 2.73 µM. Same read-out and setting: then `O=C(c1ccccc1)N1CCN(C2CN(C(=O)c3ccc(NCc4ccc(Cl)c(Cl)c4)cc3)C2)CC1` [Cpd 493, N-(3,4-Dichlorobenzyl)-4-({3-[4-(phenylcarbonyl)piperazin-1-yl]azetidin-1-yl}carbonyl)aniline], with 0.025 µM.

Regarding `O=C(c1ccccc1)N1CCN(C2CN(C(=O)C3CCC(C(F)(F)F)CC3)C2)CC1` (stereo not drawn) [Cpd 502], the Kd is > 76.7 µM. Same read-out and setting: then `O=C(c1ccccc1)N1CCN(C2CN(C(=O)c3ccc(CNc4ccc(F)c(F)c4F)cc3)C2)CC1` [Cpd 557], with 0.114 µM; and `O=C(c1cnon1)N1CC(N2CCN(C(=O)c3cc4cc(C(F)(F)F)ccc4s3)CC2)C1` [Cpd 921, 1-[1-(1,2,5-Oxadiazol-3-ylcarbonyl)azetidin-3-yl]-4-{[5-(trifluoromethyl)-1-benzothiophen-2-yl]carbonyl}piperazine], with 4.26 µM; and `O=C(c1cscn1)N1CCN(C2CN(C(=O)[C@@H]3C[C@H]3c3ccc(SC(F)(F)F)cc3)C2)CC1` (racemic) [Cpd 645, 1-(1,3-Thiazol-4-ylcarbonyl)-4-(1-{[(1RS,2RS)-2-{4-[(trifluoromethyl)sulfanyl]phenyl}cyclopropyl]carbonyl}azetidin-3-yl)piperazine], with 5.44 µM.

Turning to `O=C(c1ccc(Cc2ccc(C(F)(F)F)cc2)cc1)N1CC(N2CCN(C(=O)c3nccs3)CC2)C1` [Cpd 985], the Kd was 0.005 µM. The same measure, in the same setting: then `Cc1ccc(-c2ccc(C(=O)N3CC(N4CCN(C(=O)c5cscn5)CC4)C3)[nH]2)cc1` [Cpd 298], with 2.91 µM; and `O=C(c1ccccc1)N1CCN(C2CN(C(=O)c3ccc(CSc4cccc(Cl)c4)cc3)C2)CC1` [Cpd 551], with 0.18 µM; and `Cc1nc(-c2ccc(F)cc2)sc1C(=O)N1CC(N2CCN(C(=O)c3ccccc3)CC2)C1` [Cpd 621, 1-(1-{[2-(4-Fluorophenyl)-4-methyl-1,3-thiazol-5-yl]carbonyl}azetidin-3-yl)-4-(phenylcarbonyl)piperazine], with 0.263 µM.

Still in this assay, the particulars now being: ThermoFluor thermal stability binding assay, read-out: MGL mutant ThermoFluor Kd.
Regarding `CC(=O)Nc1cccc(-c2ccc(C(=O)N3CC(N4CCN(C(=O)c5cscn5)CC4)C3)cc2)c1` [Cpd 235, N-[4′-({3-[4-(1,3-Thiazol-4-ylcarbonyl)piperazin-1-yl]azetidin-1-yl}carbonyl)biphenyl-3-yl]acetamide], the Kd turned out to be 0.588 µM. Same read-out and setting: for `O=C(c1ccc(OCc2ccc(Cl)c(Cl)c2)c(Cl)c1)N1CC(N2CCN(C(=O)c3nccs3)CC2)C1` [Cpd 404] the value was 0.0017 µM. The same measure, in the same setting: then `O=C(c1ccc(OCc2ccc(Cl)s2)cc1)N1CC(N2CCN(C(=O)c3nccs3)CC2)C1` [Cpd 962], with 0.005 µM; and `O=C1Cc2cc(C(=O)N3CC(N4CCN(C(=O)c5nccs5)CC4)C3)ccc2N1` [Cpd 918], with 2.5 µM. Same read-out and setting: then `CS(=O)(=O)N1CCCc2cc(C(=O)N3CC(N4CCN(C(=O)c5cscn5)CC4)C3)ccc21` [Cpd 362], with 2.4 µM. On to `CC(=O)Nc1nc(C(=O)N2CCN(C3CN(C(=O)c4ccc(-c5ccccc5)cc4)C3)CC2)cs1` [Cpd 480], for which the Kd was > 76.7 µM.

Take `O=C(c1nccs1)N1CCN(C2CN(C(=O)c3nc(-c4ccccc4)oc3C(F)(F)F)C2)CC1` [Cpd 1385]: the Kd was 0.206 µM.

In the case of `CC(=O)N1c2ccc(-c3cccc(C(F)(F)F)c3)cc2CCC1C(=O)N1CC(N2CCN(C(=O)c3nccs3)CC2)C1` (stereo not drawn) [Cpd 917], the Kd was 5 µM.

Staying with this assay, now noted: ThermoFluor, compound concentration measured by qNMR, read-out: MGL mutant ThermoFluor qKd (μM) (using qNMR conc.).
For the molecule `N#Cc1ccccc1-n1ccc2cc(C(=O)N3CC(N4CCN(C(=O)c5ccccc5)CC4)C3)ccc21` [Cpd 588, 2-[5-({3-[4-(Phenylcarbonyl)piperazin-1-yl]azetidin-1-yl}carbonyl)-1H-indol-1-yl]benzonitrile], the Kd came out at 0.512 µM.
